The record followed here is ChEMBL document CHEMBL5678818, “Discovery of potent SOS1 inhibitors that block RAS activation via disruption of the RAS-SOS1 interaction” (Proc Natl Acad Sci U S A, 2019).

As usually defined, the ΔTm is the shift of the melting midpoint relative to a reference.

For assay [1], the target named is T1, Atypical kinase COQ8B, mitochondrial (Homo sapiens) (UniProt Q96D53).
T1 sequence (whole entry): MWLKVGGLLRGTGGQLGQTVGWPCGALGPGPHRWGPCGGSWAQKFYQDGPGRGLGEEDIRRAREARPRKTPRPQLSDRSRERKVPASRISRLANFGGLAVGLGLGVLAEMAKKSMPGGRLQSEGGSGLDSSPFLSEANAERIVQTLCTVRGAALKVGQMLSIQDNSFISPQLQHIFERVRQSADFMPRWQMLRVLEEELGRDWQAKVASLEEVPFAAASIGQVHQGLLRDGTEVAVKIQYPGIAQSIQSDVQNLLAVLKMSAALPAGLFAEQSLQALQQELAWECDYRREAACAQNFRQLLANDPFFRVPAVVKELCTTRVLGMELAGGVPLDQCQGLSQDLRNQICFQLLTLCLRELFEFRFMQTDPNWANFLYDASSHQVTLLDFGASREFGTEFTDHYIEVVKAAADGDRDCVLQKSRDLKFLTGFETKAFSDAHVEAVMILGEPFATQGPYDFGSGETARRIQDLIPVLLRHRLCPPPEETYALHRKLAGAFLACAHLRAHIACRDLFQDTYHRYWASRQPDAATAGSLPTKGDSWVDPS
The assay is described as follows: Inhibition of ADCK4 (unknown origin) assessed as residual activity at 1000 nM by KINOMEscan analysis relative to control.

Assay [2] deals with T2, Ephrin type-B receptor 2 (Homo sapiens) (UniProt P29323).
T2 sequence (whole entry): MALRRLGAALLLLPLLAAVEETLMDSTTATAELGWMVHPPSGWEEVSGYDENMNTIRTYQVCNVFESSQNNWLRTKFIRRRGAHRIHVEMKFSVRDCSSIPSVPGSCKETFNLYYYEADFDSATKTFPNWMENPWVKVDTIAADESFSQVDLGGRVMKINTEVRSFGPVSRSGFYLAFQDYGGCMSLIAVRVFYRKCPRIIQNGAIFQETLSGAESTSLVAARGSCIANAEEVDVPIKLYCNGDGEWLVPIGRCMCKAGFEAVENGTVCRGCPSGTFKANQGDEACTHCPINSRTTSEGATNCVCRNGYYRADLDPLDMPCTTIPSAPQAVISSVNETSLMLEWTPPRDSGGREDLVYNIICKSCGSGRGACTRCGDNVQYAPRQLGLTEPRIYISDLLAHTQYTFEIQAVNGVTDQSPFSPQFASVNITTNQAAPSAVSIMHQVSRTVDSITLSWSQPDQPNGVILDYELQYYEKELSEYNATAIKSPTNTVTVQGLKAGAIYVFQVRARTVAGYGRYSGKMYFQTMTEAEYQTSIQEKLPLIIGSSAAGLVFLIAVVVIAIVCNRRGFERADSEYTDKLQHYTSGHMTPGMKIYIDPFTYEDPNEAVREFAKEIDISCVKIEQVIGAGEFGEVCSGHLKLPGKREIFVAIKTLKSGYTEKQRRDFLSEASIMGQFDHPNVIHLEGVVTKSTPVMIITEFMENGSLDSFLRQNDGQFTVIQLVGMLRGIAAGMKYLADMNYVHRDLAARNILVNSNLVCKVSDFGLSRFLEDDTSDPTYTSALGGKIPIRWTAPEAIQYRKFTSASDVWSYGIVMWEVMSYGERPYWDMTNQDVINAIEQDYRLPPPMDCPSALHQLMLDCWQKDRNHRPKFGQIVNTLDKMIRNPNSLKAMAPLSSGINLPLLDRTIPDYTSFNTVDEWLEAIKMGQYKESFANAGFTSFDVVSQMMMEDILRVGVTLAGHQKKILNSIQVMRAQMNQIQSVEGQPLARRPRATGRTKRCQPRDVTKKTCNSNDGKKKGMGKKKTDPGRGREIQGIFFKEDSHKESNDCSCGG
Put plainly: Inhibition of EPHB2 (unknown origin) assessed as residual activity at 1000 nM by KINOMEscan analysis relative to control.

Assay [3] addresses Fibroblast growth factor receptor 4 (Homo sapiens) (UniProt P22455). Put plainly: Inhibition of FGFR4 (unknown origin) assessed as residual activity at 1000 nM by KINOMEscan analysis relative to control.
The test system of assay [4] is Mast/stem cell growth factor receptor Kit (Homo sapiens), P10721 [V559D]. The assay is described as follows: Inhibition of KIT V559D mutant (unknown origin) assessed as residual activity at 1000 nM by KINOMEscan analysis relative to control.
In assay [5] the target is Serine/threonine-protein kinase pim-2 (Homo sapiens) (UniProt Q9P1W9). The assay is described as follows: Inhibition of PIM2 (unknown origin) assessed as residual activity at 1000 nM by KINOMEscan analysis relative to control.
Assay [6] addresses Ribosomal protein S6 kinase alpha-4 (Homo sapiens) (UniProt O75676). The assay is described as follows: Inhibition of N-terminal RPS6KA4 […] domain 1 (unknown origin) assessed as residual activity at 1000 nM by KINOMEscan analysis relative to control.
For assay [7], the target named is GTPase KRas (Homo sapiens) (UniProt P01116). Put plainly: Stabilization of N-terminal His10-tagged wild-type recombinant human KRAS (1 to 169 residues) expressed in Escherichia coli assessed as change in melting temperature at 100 uM with heating from 25 to 85 degreeC by thermal shift assay.

`COc1cc2nc(C)nc(N[C@H](C)c3cccc(-c4cn[nH]c4)c3)c2cc1OC`: the Activity in assay [1] turned out to be 89%; in assay [2], 98%; in assay [3] it was 97%; in assay [4], 81%; in assay [5], 88%; in assay [6] it was 0%.
Take `COc1cc2ncnc(N[C@H](C)c3cccc4ccccc34)c2cc1OC`: the thermal shift (ΔTm) in assay [7] was -1.1 °C. Besides, the Activity in assay [1] was found to be 100%; in assay [2], 94%; in assay [3], 98%; in assay [4] it was 95%; in assay [5], 96%; in assay [6], 100%.
Regarding `CNCc1ccccc1-c1csc([C@@H](C)Nc2nc(C)nc3cc(OC)c(OC)cc23)c1` [BAY-293], in assay [7], the thermal shift (ΔTm) was 0.23 °C.
